Data taken from patent US8383125B2, “Antimicrobial protein” (Agriculture Victoria Services Pty, Limited, priority 2006, dated 2013).
Read-outs that look alike come from different tables or passages of the source. Where no end group is shown, it is not given here.

How the values were obtained:
Bacillus subtilis = type: cell-based; details: Table 1
E. coli DH5α = details: 5 μl of 250 μg/ml solutions of each peptide; E. coli
[1] = tested on: Enterococcus faecium (ATCC 700221); type: cell-based; details: ATCC 700221, 17 h
Protocol: (§1) The MIC values of SEQ ID NO: 2 and SEQ ID NO: 19 were also determined against a range of multidrug-resistant isolates, including clinical and laboratory strains. Peptides, maintained at −20° C. in solid form for storage purposes, were subsequently dissolved in 0.01% (v/v) acetic acid (Sigma-Aldrich) to a stock concentration of […]. The stock solutions were made fresh for each experiment. Eighteen (18) bacterial isolates obtained from the Facility for Anti-Infective Drug Development and Innovation, Victoria, Australia (FADDI) as listed in Table 2 were maintained as stock cultures in Tryptic Soya Broth plus 20% (v/v) glycerol at a temperature of −80° C., and subcultured onto Nutrient Agar for each experiment. MIC values were determined in cation-adjusted Mueller-Hinton broth (CAMHB) and Mueller-Hinton broth (MHB) using standard broth micro-dilution methods.

[2] = tested on: Staphylococcus aureus (ATCC 700698); type: cell-based; details: ATCC 700698, 17 h
Protocol: as §1

[3] = tested on: P. aeruginosa strain FADDI 002; type: cell-based, Pseudomonas aeruginosa; details: strain FADDI 002, 17 h
Protocol: as §1

[4] = tested on: P. aeruginosa strain FADDI 001; type: cell-based, Pseudomonas aeruginosa; details: strain FADDI 001, 17 h
Protocol: as §1

[5] = tested on: P. aeruginosa strain FADDI 004; type: cell-based, Pseudomonas aeruginosa; details: strain FADDI 004, 17 h
Protocol: as §1

[6] = tested on: P. aeruginosa strain FADDI 003; type: cell-based, Pseudomonas aeruginosa; details: strain FADDI 003, 17 h
Protocol: as §1

[7] = tested on: S. aureus strain FADDI 011; type: cell-based, Staphylococcus aureus; details: strain FADDI 011, 17 h
Protocol: as §1

S. aureus (ATCC 43300) = type: cell-based, Staphylococcus aureus; details: ATCC 43300, 17 h
Protocol: as §1

S. aureus 700699 = type: cell-based, Staphylococcus aureus; details: 700699, 17 h
Protocol: as §1

[8] = tested on: A. baumannii strain FADDI 005 (ATCC 19606 derivative); type: cell-based, Acinetobacter baumannii; details: 17 hr at 35° C.
Protocol: as §1
Pseudomonas aeruginosa (ATCC 27853) and S. aureus (ATCC 43300) were included as quality controls in experiments. P. aeruginosa strains FADDI 001 and FADDI 002 are mucoid; and P. aeruginosa strains FADDI 003 and FADDI 004 are non-mucoid. P. aeruginosa strain FADDI 003 also has a small colony morphology. The A. baumannii strain FADDI 005 is a colistin-resistant isolate obtained from Mueller-Hinton agar containing 10 mg/L colistin.

[9] = tested on: A. baumannii strain FADDI 007; type: cell-based, Acinetobacter baumannii; details: strain FADDI 007, 17 h
Protocol: as §1

[10] = tested on: A. baumannii strain FADDI 006; type: cell-based, Acinetobacter baumannii; details: strain FADDI 006, 17 h
Protocol: as §1

[11] = tested on: Streptococcus equi equi (ATCC 9527); type: cell-based; details: Table 1
[12] = tested on: Candida albicans (ATCC 753); type: cell-based; details: Table 1
[13] = tested on: tammar wallaby erythrocytes; type: cell-based
Protocol: The toxicity of the antimicrobial peptides was determined using a haemolytic assay. In particular, the hemolytic activity of the peptides was determined using tammar wallaby erythrocytes. Fresh erythrocytes were harvested from heparinized blood taken from a tammar wallaby. Erythrocytes were harvested by centrifugation for 3 min at 3000 g. Erythrocytes were then washed three times with PBS (pH 7.4) until the supernatant was essentially colourless. 20 μl two fold serial dilutions of the peptide were mixed with the same volume of erythrocytes in solution 2%) in PBS of each well of a 96-plate. 80 μl PBS was added to each well after the plate was incubated at 37° C. for one hour. Plates were then centrifuged at 3000 g for 5 min. 90 μl of the resulting supernatant was transferred to a flat-bottom microtiter plate and haemoglobin release was monitored by measuring the absorbance at 414 nm with an ELISA plate reader. […] Each sample was performed in triplicate. Percentage hemolysis was calculated by the following formula: [(OD414 peptide−OD414 buffer)/OD414 complete hemolysis−OD414 buffer)]×100%.

[14] = tested on: K. pneumoniae strain FADDI 009; type: cell-based, Klebsiella pneumoniae; details: strain FADDI 009, 17 h
Protocol: as §1

[15] = tested on: K. pneumoniae strain FADDI 010; type: cell-based, Klebsiella pneumoniae; details: strain FADDI 010, 17 h
Protocol: as §1

[16] = tested on: K. pneumoniae strain FADDI 008; type: cell-based, Klebsiella pneumoniae; details: strain FADDI 008, 17 h
Protocol: as §1

[17] = tested on: A. baumannii strain FADDI 006; design: key: resistant (R); susceptible (S); details: Clinical specimen; cited from earlier work
[18] = tested on: K. pneumoniae strain FADDI 008; design: key: resistant (R); susceptible (S); details: Clinical specimen; cited from earlier work
[19] = tested on: Acinetobacter baumannii (ATCC 19606); design: key: resistant (R); susceptible (S); details: Reference isolate; cited from earlier work
[20] = tested on: P. aeruginosa strain FADDI 001; design: key: resistant (R); susceptible (S); details: Clinical specimen; cited from earlier work
[21] = tested on: P. aeruginosa strain FADDI 003; design: key: resistant (R); susceptible (S); details: Clinical specimen; cited from earlier work
[22] = tested on: A. baumannii strain FADDI 007; design: key: resistant (R); susceptible (S); details: Clinical specimen; cited from earlier work
[23] = tested on: Klebsiella pneumoniae (ATCC 13883); design: key: resistant (R); susceptible (S); details: Reference isolate; cited from earlier work
[24] = tested on: P. aeruginosa strain FADDI 002; design: key: resistant (R); susceptible (S); details: Clinical specimen; cited from earlier work
[25] = tested on: K. pneumoniae strain FADDI 009; design: key: resistant (R); susceptible (S); details: Clinical specimen; cited from earlier work
[26] = tested on: A. baumannii strain FADDI 005 (ATCC 19606 derivative); design: key: resistant (R); susceptible (S); details: Laboratory prepared; obtained from Mueller-Hinton agar containing 10 mg/L colistin; cited from earlier work
[27] = tested on: K. pneumoniae strain FADDI 010; design: key: resistant (R); susceptible (S); details: Clinical specimen; cited from earlier work
[28] = tested on: P. aeruginosa strain FADDI 004; design: key: resistant (R); susceptible (S); details: Clinical specimen; cited from earlier work
[29] = tested on: Pseudomonas aeruginosa (ATCC 27853); design: key: resistant (R); susceptible (S); details: Reference isolate; cited from earlier work

**Q.** What does the source list for “KRGLWESLKRKATKLGDDIRNTLRNFKIKFPVPRQ-NH2 [SEQ ID NO: 19]”?
**A.** antimicrobial activity in words (Bacillus subtilis): moderately protective; radial clear zone compared to LL-37 (FIG. 3) (E. coli DH5α): larger radial clear zone; MIC [1]: 16 µg/mL; MIC [2]: >64 µg/mL; MIC [3]: >64 µg/mL; MIC [4]: >64 µg/mL; MIC [5]: >64 µg/mL; MIC [6]: >64 µg/mL; MIC [7]: >64 µg/mL; MIC (S. aureus (ATCC 43300)): >64 µg/mL; MIC (S. aureus 700699): >64 µg/mL; MIC ([8]; CAMHB (10.0 mg/L Mg2+ and 24 mg/L Ca2+)): 8 µg/mL; MIC ([8]; MHB (less than 5 mg/L Mg2+ and 24 mg/L Ca2+)): 16 µg/mL; MIC [9]: 16 µg/mL; MIC [10]: >64 µg/mL; antimicrobial activity in words [11]: moderately protective; antimicrobial activity in words [12]: Weaker antimicrobial activity; haemolysis at the MIC determined in Example 1 [13]: less than 5%; haemolysis at the majority of concentrations tested (FIGS. 2a and 2b) [13]: did not cause substantial levels of haemolysis; MIC [14]: >64 µg/mL; MIC [15]: >64 µg/mL; MIC [16]: >64 µg/mL

**Q.** Which “Colistin resistant (R) or susceptible (S)” value (from here on “Colistin resistant”) [17] does the source give for colistin here?
**A.** R

**Q.** What about the “Colistin resistant” value [18] of the same substance?
**A.** S

**Q.** What about the “Colistin resistant” value [19] of the same substance?
**A.** S

**Q.** What about the “Colistin resistant” value [20] of the same substance?
**A.** S

**Q.** And the “Colistin resistant” value [21]?
**A.** R

**Q.** What about the “Colistin resistant” value [22] of the same substance?
**A.** S

**Q.** What about the “Colistin resistant” value [23] of the same substance?
**A.** S

**Q.** And the “Colistin resistant” value [24]?
**A.** S

**Q.** And the “Colistin resistant” value [25]?
**A.** R

**Q.** What about the “Colistin resistant” value [26] of the same substance?
**A.** R

**Q.** What about the “Colistin resistant” value [27] of the same substance?
**A.** R

**Q.** And the “Colistin resistant” value [28]?
**A.** R

**Q.** And the “Colistin resistant” value [29]?
**A.** S
